Source: ChEMBL document CHEMBL3120154, “2-[N-Alkyl(R-phenyl)-aminomethyl]-3-phenyl-7-trifluoromethylquinoxalines as anticancer agents inhibitors of folate enzymes” (Eur J Med Chem, 2014)

What was measured:
Type in all cases: functional
SR = assay: Cytotoxicity against human SR cells at 10^-8 M after 48 hrs by SRB assay; conditions: read-out: GI
RXF 393 = assay: Cytotoxicity against human RXF393 cells after 48 hrs by SRB assay; conditions: RXF 393, 48 h
[1] = Cytotoxicity against human UACC257 cells after 48 hrs by SRB assay; conditions: UACC-257, 48 h
T47D [2] = assay: Cytotoxicity against human T47D cells at 10^-8 M after 48 hrs by SRB assay; conditions: read-out: GI
MDA-MB-435 [3] = assay: Cytotoxicity against human MDA-MB-435 cells at 10^-8 M after 48 hrs by SRB assay; conditions: MDA-MB-435, 48 h, read-out: GI
MDA-MB-231 = assay: Cytotoxicity against human MDA-MB-231 cells at 10^-8 M after 48 hrs by SRB assay; conditions: MDA-MB-231, 48 h, read-out: GI
MCF7 = assay: Cytotoxicity against human MCF7 cells at 10^-8 M after 48 hrs by SRB assay; conditions: MCF7, 48 h, read-out: GI
DU-145 = assay: Cytotoxicity against human DU145 cells at 10^-8 M after 48 hrs by SRB assay; conditions: DU-145, 48 h, read-out: GI
PC-3 = assay: Cytotoxicity against human PC3 cells at 10^-8 M after 48 hrs by SRB assay; conditions: PC-3, 48 h, read-out: GI
CAKI-1 = assay: Cytotoxicity against human Caki1 cells at 10^-8 M after 48 hrs by SRB assay; conditions: CAKI-1, 48 h, read-out: GI
A498 [4] = assay: Cytotoxicity against human A498 cells at 10^-8 M after 48 hrs by SRB assay; conditions: A498, 48 h, read-out: GI
786-0 = assay: Cytotoxicity against human 786-0 cells at 10^-8 M after 48 hrs by SRB assay; conditions: 786-0, 48 h, read-out: GI
[5] = Cytotoxicity against human OVCAR4 cells at 10^-8 M after 48 hrs by SRB assay; conditions: OVCAR-4, 48 h, read-out: GI
SK-MEL-5 [6] = assay: Cytotoxicity against human SK-MEL-5 cells at 10^-8 M after 48 hrs by SRB assay; conditions: SK-MEL-5, 48 h, read-out: GI
M14 = assay: Cytotoxicity against human M14 cells at 10^-8 M after 48 hrs by SRB assay; conditions: M14, 48 h, read-out: GI
SF-539 = assay: Cytotoxicity against human SF539 cells at 10^-8 M after 48 hrs by SRB assay; conditions: SF-539, 48 h, read-out: GI
SNB-19 [7] = assay: Cytotoxicity against human SNB19 cells at 10^-8 M after 48 hrs by SRB assay; conditions: SNB-19, 48 h, read-out: GI
HCT-116 [8] = assay: Cytotoxicity against human HCT116 cells at 10^-8 M after 48 hrs by SRB assay; conditions: HCT-116, 48 h, read-out: GI
NCI-H522 = assay: Cytotoxicity against human NCI-H522 cells at 10^-8 M after 48 hrs by SRB assay; conditions: NCI-H522, 48 h, read-out: GI
NCI-H322M [9] = assay: Cytotoxicity against human NCI-H322M cells at 10^-8 M after 48 hrs by SRB assay; conditions: read-out: GI
HOP-62 = assay: Cytotoxicity against human HOP62 cells at 10^-8 M after 48 hrs by SRB assay; conditions: HOP-62, 48 h, read-out: GI
RPMI-8226 = assay: Cytotoxicity against human RPMI8226 cells at 10^-8 M after 48 hrs by SRB assay; conditions: RPMI-8226, 48 h, read-out: GI
MOLT-4 [10] = assay: Cytotoxicity against human MOLT4 cells at 10^-8 M after 48 hrs by SRB assay; conditions: MOLT-4, 48 h, read-out: GI
CCRF-CEM = assay: Cytotoxicity against human CCRF-CEM cells at 10^-8 M after 48 hrs by SRB assay; conditions: read-out: GI
T47D [11] = assay: Cytotoxicity against human T47D cells at 10^-7 M after 48 hrs by SRB assay; conditions: read-out: GI
MDA-MB-435 [12] = assay: Cytotoxicity against human MDA-MB-435 cells at 10^-7 M after 48 hrs by SRB assay; conditions: MDA-MB-435, 48 h, read-out: GI
[13] = Cytotoxicity against human Hs578T cells at 10^-7 M after 48 hrs by SRB assay; conditions: Hs-578T, read-out: GI
NCI/ADR-RES = assay: Cytotoxicity against human NCI/ADR-RES cells at 10^-7 M after 48 hrs by SRB assay; conditions: read-out: GI
ACHN = assay: Cytotoxicity against human ACHN cells at 10^-7 M after 48 hrs by SRB assay; conditions: read-out: GI
A498 [14] = assay: Cytotoxicity against human A498 cells at 10^-7 M after 48 hrs by SRB assay; conditions: A498, 48 h, read-out: GI
[15] = Cytotoxicity against human OVCAR4 cells at 10^-7 M after 48 hrs by SRB assay; conditions: OVCAR-4, 48 h, read-out: GI
[16] = Cytotoxicity against human OVCAR5 cells at 10^-7 M after 48 hrs by SRB assay; conditions: OVCAR-5, 48 h, read-out: GI
[17] = Cytotoxicity against human UACC257 cells at 10^-7 M after 48 hrs by SRB assay; conditions: UACC-257, 48 h, read-out: GI
SK-MEL-5 [18] = assay: Cytotoxicity against human SK-MEL-5 cells at 10^-7 M after 48 hrs by SRB assay; conditions: SK-MEL-5, 48 h, read-out: GI
SNB-75 = assay: Cytotoxicity against human SNB75 cells at 10^-7 M after 48 hrs by SRB assay; conditions: SNB-75, 48 h, read-out: GI
SNB-19 [19] = assay: Cytotoxicity against human SNB19 cells at 10^-7 M after 48 hrs by SRB assay; conditions: SNB-19, 48 h, read-out: GI
SF-295 [20] = assay: Cytotoxicity against human SF295 cells at 10^-7 M after 48 hrs by SRB assay; conditions: SF-295, 48 h, read-out: GI
SF-268 = assay: Cytotoxicity against human SF268 cells at 10^-7 M after 48 hrs by SRB assay; conditions: SF-268, 48 h, read-out: GI
KM12 = assay: Cytotoxicity against human KM12 cells at 10^-7 M after 48 hrs by SRB assay; conditions: KM12, 48 h, read-out: GI
HT-29 = assay: Cytotoxicity against human HT-29 cells at 10^-7 M after 48 hrs by SRB assay; conditions: HT-29, 48 h, read-out: GI
HCT-116 [21] = assay: Cytotoxicity against human HCT116 cells at 10^-7 M after 48 hrs by SRB assay; conditions: HCT-116, 48 h, read-out: GI
HCT-15 = assay: Cytotoxicity against human HCT15 cells at 10^-7 M after 48 hrs by SRB assay; conditions: HCT-15, 48 h, read-out: GI
NCI-H322M [22] = assay: Cytotoxicity against human NCI-H322M cells at 10^-7 M after 48 hrs by SRB assay; conditions: read-out: GI
MOLT-4 [23] = assay: Cytotoxicity against human MOLT4 cells at 10^-7 M after 48 hrs by SRB assay; conditions: MOLT-4, 48 h, read-out: GI
SF-295 [24] = assay: Cytotoxicity against human SF295 cells at 10^-5 M after 48 hrs by SRB assay; conditions: SF-295, 48 h, read-out: GI

## CCN(Cc1nc2cc(C(F)(F)F)ccc2nc1-c1ccccc1)c1ccc(OC)c(OC)c1
SR
  inhibition of growth at 0.01 µM: < 40%
RXF 393
  GI50: 309 nM
[1]
  GI50: 25.1 nM
T47D [2]
  inhibition of growth at 0.01 µM: < 40%
MDA-MB-435 [3]
  inhibition of growth at 0.01 µM: < 40%
MDA-MB-231
  inhibition of growth at 0.01 µM: < 40%
MCF7
  inhibition of growth at 0.01 µM: < 40%
DU-145
  inhibition of growth at 0.01 µM: < 40%
PC-3
  inhibition of growth at 0.01 µM: < 40%
CAKI-1
  inhibition of growth at 0.01 µM: < 40%
A498 [4]
  inhibition of growth at 0.01 µM: < 40%
786-0
  inhibition of growth at 0.01 µM: < 40%
[5]
  inhibition of growth at 0.01 µM: < 40%
SK-MEL-5 [6]
  inhibition of growth at 0.01 µM: < 40%
M14
  inhibition of growth at 0.01 µM: < 40%
SF-539
  inhibition of growth at 0.01 µM: < 40%
SNB-19 [7]
  inhibition of growth at 0.01 µM: < 40%
HCT-116 [8]
  inhibition of growth at 0.01 µM: < 40%
NCI-H522
  inhibition of growth at 0.01 µM: < 40%
NCI-H322M [9]
  inhibition of growth at 0.01 µM: < 40%
HOP-62
  inhibition of growth at 0.01 µM: < 40%
RPMI-8226
  inhibition of growth at 0.01 µM: < 40%
MOLT-4 [10]
  inhibition of growth at 0.01 µM: < 40%
CCRF-CEM
  inhibition of growth at 0.01 µM: < 40%
T47D [11]
  inhibition of growth at 0.1 µM: < 40%
MDA-MB-435 [12]
  inhibition of growth at 0.1 µM: < 40%
[13]
  inhibition of growth at 0.1 µM: < 40%
NCI/ADR-RES
  inhibition of growth at 0.1 µM: < 40%
ACHN
  inhibition of growth at 0.1 µM: < 40%
A498 [14]
  inhibition of growth at 0.1 µM: < 40%
[15]
  inhibition of growth at 0.1 µM: < 40%
[16]
  inhibition of growth at 0.1 µM: < 40%
[17]
  inhibition of growth at 0.1 µM: 67%
SK-MEL-5 [18]
  inhibition of growth at 0.1 µM: < 40%
SNB-75
  inhibition of growth at 0.1 µM: < 40%
SNB-19 [19]
  inhibition of growth at 0.1 µM: < 40%
SF-295 [20]
  inhibition of growth at 0.1 µM: < 40%
SF-268
  inhibition of growth at 0.1 µM: < 40%
KM12
  inhibition of growth at 0.1 µM: < 40%
HT-29
  inhibition of growth at 0.1 µM: < 40%
HCT-116 [21]
  inhibition of growth at 0.1 µM: < 40%
HCT-15
  inhibition of growth at 0.1 µM: < 40%
NCI-H322M [22]
  inhibition of growth at 0.1 µM: < 40%
MOLT-4 [23]
  inhibition of growth at 0.1 µM: < 40%
SF-295 [24]
  inhibition of growth at 10 µM: 18%
